{"source": "the OligoGym collection", "note": "These antisense oligonucleotides have a phosphorothioate backbone; sugars and methylation of C are not fully specified. Further: test concentration or dose not given here."}
{"target": "AKT1", "conditions": "ASO"}
{"sequence": "AAAATACTAAAGTTGAAT", "remaining target (mRNA or protein) (fraction of control)": 0.75}
{"sequence": "AAAGTTGAATGTTGTAAA", "remaining target (mRNA or protein) (fraction of control)": 0.9}
{"sequence": "AAGTGCTACCGTGGAGAG", "remaining target (mRNA or protein) (fraction of control)": 0.43}
{"sequence": "ACAGCGTGGCTTCTCTCA", "remaining target (mRNA or protein) (fraction of control)": 0.88}
{"sequence": "ACGTTCTTCTCCGAGTGC", "remaining target (mRNA or protein) (fraction of control)": 0.7}
{"sequence": "AGCCAATGAAGGTGCCAT", "remaining target (mRNA or protein) (fraction of control)": 0.33}
{"sequence": "AGTCTGGATGGCGGTTGT", "remaining target (mRNA or protein) (fraction of control)": 0.51}
{"sequence": "ATTTGAACAACATAATAC", "remaining target (mRNA or protein) (fraction of control)": 0.89}
{"sequence": "CAACCCTCCTTCACAATA", "remaining target (mRNA or protein) (fraction of control)": 0.76}
{"sequence": "CACAGAGAAGTTGTTGAG", "remaining target (mRNA or protein) (fraction of control)": 0.78}
{"sequence": "CAGGGAGTCAGGGAGGGC", "remaining target (mRNA or protein) (fraction of control)": 0.87}
{"sequence": "CATAATACACAATAACAA", "remaining target (mRNA or protein) (fraction of control)": 0.61}
{"sequence": "CCCAGAGAGATGACAGAT", "remaining target (mRNA or protein) (fraction of control)": 0.54}
{"sequence": "CCCTGTGCCCTGTCCCAG", "remaining target (mRNA or protein) (fraction of control)": 0.45}
{"sequence": "CCGAAAGTGCCCTTGCCC", "remaining target (mRNA or protein) (fraction of control)": 0.44}
{"sequence": "CCTAAGCCCCTGGTGACA", "remaining target (mRNA or protein) (fraction of control)": 0.85}
{"sequence": "CCTGAGTTGTCACTGGGT", "remaining target (mRNA or protein) (fraction of control)": 0.51}
{"sequence": "CGAAAAGGTCAAGTGCTA", "remaining target (mRNA or protein) (fraction of control)": 0.59}
{"sequence": "CGGTCCTCGGAGAACACA", "remaining target (mRNA or protein) (fraction of control)": "≥ 1"}
{"sequence": "CTCGCTGTCCACACACTC", "remaining target (mRNA or protein) (fraction of control)": 0.39}
{"sequence": "CTGGCTGACAGAGTGAGG", "remaining target (mRNA or protein) (fraction of control)": 0.41}
{"sequence": "CTTTGACTTCTTTGACCC", "remaining target (mRNA or protein) (fraction of control)": 0.32}
{"sequence": "GATAGTTTTCTTCCCTAC", "remaining target (mRNA or protein) (fraction of control)": "≥ 1"}
{"sequence": "GCCACGATGACTTCCTTC", "remaining target (mRNA or protein) (fraction of control)": 0.4}
{"sequence": "GCCGTGAACTCCTCATCA", "remaining target (mRNA or protein) (fraction of control)": 0.44}
{"sequence": "GCCTCTCCATCCCTCCAA", "remaining target (mRNA or protein) (fraction of control)": 0.24}
{"sequence": "GCGGCTGGCTGACAGAGT", "remaining target (mRNA or protein) (fraction of control)": 0.39}
{"sequence": "GCTGCTGTGTGCCTGCCA", "remaining target (mRNA or protein) (fraction of control)": 0.62}
{"sequence": "GGAGAACAAACTGGATGA", "remaining target (mRNA or protein) (fraction of control)": "≥ 1"}
{"sequence": "GGCAGCCCCTTTGACTTC", "remaining target (mRNA or protein) (fraction of control)": 0.47}
{"sequence": "GGCTTGAAGGGTGGGCTG", "remaining target (mRNA or protein) (fraction of control)": 0.59}
{"sequence": "GGTCAGGTGGTGTGATGG", "remaining target (mRNA or protein) (fraction of control)": "≥ 1"}
{"sequence": "GTGCCGCAAAAGGTCTTC", "remaining target (mRNA or protein) (fraction of control)": 0.34}
{"sequence": "TAAAACCCGCAGGATAGT", "remaining target (mRNA or protein) (fraction of control)": 0.26}
{"sequence": "TACTCAGGTGTGCCGCAA", "remaining target (mRNA or protein) (fraction of control)": 0.34}
{"sequence": "TACTCCCCTCGTTTGTGC", "remaining target (mRNA or protein) (fraction of control)": "≥ 1"}
{"sequence": "TCAAAATACCTGGTGTCA", "remaining target (mRNA or protein) (fraction of control)": 0.49}
{"sequence": "TCCTCCTCCTCCTGCTTC", "remaining target (mRNA or protein) (fraction of control)": 0.91}
{"sequence": "TGCCATCATTCTTGAGGA", "remaining target (mRNA or protein) (fraction of control)": 0.35}
{"sequence": "TTTTCTTCCCTACCCCGC", "remaining target (mRNA or protein) (fraction of control)": 0.36}
{"target": "ETS2", "conditions": "ASO"}
{"sequence": "AACCCGTTGCACATCCAG", "remaining target (mRNA or protein) (fraction of control)": "≥ 1"}
{"sequence": "AATAGTCTGTGTGTGTCC", "remaining target (mRNA or protein) (fraction of control)": "≥ 1"}
{"sequence": "AGCTGTCCGCACCGTTCT", "remaining target (mRNA or protein) (fraction of control)": "≥ 1"}
{"sequence": "AGGAGCGGGAGGAGGAGG", "remaining target (mRNA or protein) (fraction of control)": 0.87}
{"sequence": "ATCCGTCTCCAGTCCAGC", "remaining target (mRNA or protein) (fraction of control)": 0.8}
{"sequence": "CAAGTTGCTGCCTGGGAA", "remaining target (mRNA or protein) (fraction of control)": 0.39}
{"sequence": "CACAGTTGGCGGAGTCAT", "remaining target (mRNA or protein) (fraction of control)": 0.45}
{"sequence": "CAGCTCCAGGAGAAACTG", "remaining target (mRNA or protein) (fraction of control)": "≥ 1"}
{"sequence": "CATGGTTGTTTCCTTCCC", "remaining target (mRNA or protein) (fraction of control)": "≥ 1"}
{"sequence": "CATTCATGCCGAACCTCT", "remaining target (mRNA or protein) (fraction of control)": "≥ 1"}
{"sequence": "CCAGAGACGATCAGGGAG", "remaining target (mRNA or protein) (fraction of control)": "≥ 1"}
{"sequence": "CCGACGTCTTGTGGATGA", "remaining target (mRNA or protein) (fraction of control)": 0.45}
{"sequence": "CGGCGCTTGGTCGGGACG", "remaining target (mRNA or protein) (fraction of control)": "≥ 1"}
{"sequence": "CGTCCCACGGACTGCCAG", "remaining target (mRNA or protein) (fraction of control)": "≥ 1"}
{"sequence": "CTGCCTTTCCTGGGTCCT", "remaining target (mRNA or protein) (fraction of control)": "≥ 1"}
{"sequence": "CTTAAAAGCACTGTGAGT", "remaining target (mRNA or protein) (fraction of control)": 0.63}
{"sequence": "GAAGCCACTGGCATACCT", "remaining target (mRNA or protein) (fraction of control)": 0.64}
{"sequence": "GAGGCAGCCTGGTCAAGA", "remaining target (mRNA or protein) (fraction of control)": 0.61}
{"sequence": "GCAGGTATAACTGGTTTG", "remaining target (mRNA or protein) (fraction of control)": "≥ 1"}
{"sequence": "GCGTGCAGTTCCTCGGGC", "remaining target (mRNA or protein) (fraction of control)": 0.81}
{"sequence": "GGAACGGAGGTGAGGTGT", "remaining target (mRNA or protein) (fraction of control)": 0.61}
{"sequence": "GGACGGCCGAGTGGAGGG", "remaining target (mRNA or protein) (fraction of control)": 0.81}
{"sequence": "GGAGCTGAGCCGAGACTT", "remaining target (mRNA or protein) (fraction of control)": 0.51}
{"sequence": "GGCCACTTTCCTGGACAT", "remaining target (mRNA or protein) (fraction of control)": "≥ 1"}
{"sequence": "GGCCGGCTCAGGGTGGTC", "remaining target (mRNA or protein) (fraction of control)": 0.51}
{"sequence": "GGCTGGCGCTTGAGTGTC", "remaining target (mRNA or protein) (fraction of control)": 0.7}
{"sequence": "GGGACCCATCAAAGGTGT", "remaining target (mRNA or protein) (fraction of control)": 0.66}
{"sequence": "GGGTAATTCTGTGTCTGC", "remaining target (mRNA or protein) (fraction of control)": 0.96}
{"sequence": "GGGTCACTCCTCTCTTGG", "remaining target (mRNA or protein) (fraction of control)": 0.75}
